Test results taken from patent US9617262B2, “Antibacterial cyclopental[C]pyrrole substituted 3,4-dihydro-1H-[1,8]naphthyridinones” (Janssen Sciences Ireland UC, priority 2011, dated 2017).

Biological target: S. aureus ATCC 29213 FabI (Staphylococcus aureus (strain MRSA252), UniProt Q6GI75)
Experiment: Staphylococcus aureus FabI enzyme inhibition assay
Type: biochemical
Conditions: pH 6.5, 30 minutes at room temperature
Method: FabI enzyme inhibition assays were carried out in half-area, 384-well microtitre plates. Compounds were evaluated in 40-μl assay mixtures containing 100 mM NaADA, pH 6.5 (ADA=N-[2-acetamido]-2iminodiacetic acid), 250 μM crotonoyl-CoA, 625 μM NADH and 50 μg/ml S. aureus ATCC 29213 FabI. Inhibitors were typically varied over the range of 50 to 0.39 μM. The reaction mixtures were incubated for 30 minutes at room temperature and the reaction was stopped by adding 200 mM Tris buffer (pH 9.0) to create a pH-shift. The consumption of NADH was monitored by measuring the change in absorbance at […]. By comparing sample readings to those of negative (absence of compound) and positive (absence of enzyme) controls, the percent inhibition of enzymatic activity of the compounds was determined. A best-fit curve is fitted by a minimum of squares method. From this an IC50-value (expressed in μg/ml), resulting in 50% inhibition of enzymatic activity, was obtained.

Structure (SMILES)	FabI IC50 [mg/L]
O=C1CCc2cc(/C=C/C(=O)N3CC4CC(n5cccn5)CC4C3)cnc2N1 (stereo not drawn) [compound 29]	1.04
C#CN1C[C@@H]2CN(C(=O)/C=C/c3cnc4c(c3)CCC(=O)N4)C[C@@H]2C1 [compound 30]	2.66
COC1CC2CN(C(=O)/C=C/c3cnc4c(c3)CCC(=O)N4)CC2C1 (stereo not drawn) [compound 31]	1.42
O=C1CCc2cc(/C=C/C(=O)N3CC4C=C(c5nccs5)CC4C3)cnc2N1 (stereo not drawn) [compound 32]	0.46
O=C1CCc2cc(/C=C/C(=O)N3C[C@@H]4CN(S(=O)(=O)c5ccccc5)C[C@@H]4C3)cnc2N1 [compound 33]	3.06
O=C1CCc2cc(/C=C/C(=O)N3CC4CC(F)(F)CC4C3)cnc2N1 (stereo not drawn) [compound 34]	1.67
O=C1CCc2cc(/C=C/C(=O)N3C[C@@H]4CN(c5ccc(Cl)cc5)C[C@@H]4C3)cnc2N1 [compound 35]	1.25
O=C1CCc2cc(/C=C/C(=O)N3C[C@@H]4CN(c5cccc(Cl)c5)C[C@@H]4C3)cnc2N1 [compound 36]	0.93
O=C1CCc2cc(/C=C/C(=O)N3CC4CC(n5cncn5)CC4C3)cnc2N1 (stereo not drawn) [compound 37]	3.37
O=C1CCc2cc(/C=C/C(=O)N3CC4CC(n5ccnn5)CC4C3)cnc2N1 (stereo not drawn) [compound 38]	2.08
O=C1CCc2cc(/C=C/C(=O)N3CC4CC(n5nccn5)CC4C3)cnc2N1 (stereo not drawn) [compound 39]	0.56
O=C1CCc2cc(/C=C/C(=O)N3C[C@@H]4CC(c5ccsc5)=C[C@@H]4C3)cnc2N1 [compound 45]	0.45
CC1=CC2CN(C(=O)/C=C/c3cnc4c(c3)CCC(=O)N4)CC2C1 (stereo not drawn) [compound 52]	0.50
O=C1CCc2cc(/C=C/C(=O)N3C[C@H]4CC(Oc5ccccc5)C[C@H]4C3)cnc2N1 (stereo partly drawn) [compound 54]	1.84
Cc1ccc(C2=CC3CN(C(=O)/C=C/c4cnc5c(c4)CCC(=O)N5)CC3C2)o1 (stereo not drawn) [compound 57]	0.62
Cc1cscc1C1=CC2CN(C(=O)/C=C/c3cnc4c(c3)CCC(=O)N4)CC2C1 (stereo not drawn) [compound 60]	0.59
CC(=O)c1ccc(C2=CC3CN(C(=O)/C=C/c4cnc5c(c4)CCC(=O)N5)CC3C2)s1 (stereo not drawn) [compound 62]	0.44
COc1ccsc1C1=CC2CN(C(=O)/C=C/c3cnc4c(c3)CCC(=O)N4)CC2C1 (stereo not drawn) [compound 72]	0.43
